Assay results reported in patent publication US9187472B2 (AbbVie Inc., priority 2012, dated 2015).

Legend:
PC3 cells = test: NAMPT Cell Proliferation Assay; assay type: cell-based; settings: Homo sapiens, PC-3, 120 h, 5 days incubation, cell viability by Cell Titer Glo
Procedure, shortened: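 Seed PC3 at 500 cells/well (RPMI, 10% HI-FBS), attach overnight; add compound, 10-fold series 10 μM → 1×10^−5 μM; incubate 5 d, 37° C/5% CO2; luminescent viability readout; fit % inhibition sigmoidally for IC50.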

NAMPT = NAMPT (Homo sapiens, UniProt P43490); test: TR-FRET Binding Assay of NAMPT with PRPP; settings: with 200 μM PRPP and 2.5 mM ATP; 2 nM NAMPT, 2 nM probe, 16 hours equilibration
Experimental: Time-Resolved Fluorescence Resonance Energy Transfer (TR-FRET) Binding Assay of NAMPT with PRPP
Compound handling and data processing were identical to the assay in the absence of substrates (above). Final concentrations were 1× assay buffer, 2% DMSO, 2 nM NAMPT, 2 nM probe, 1 nM Tb-anti-His antibody (Invitrogen # PV5895), 200 μM PRPP and 2.5 mM ATP. Reactions were equilibrated for 16 hours prior to measurement to allow for potential enzymatic modification of test compounds.

[1] = molecular target: NAMPT (human, recombinant, C-terminally His-tagged) (Homo sapiens, UniProt P43490); test: Time-Resolved Fluorescence Resonance Energy Transfer (TR-FRET) Binding Assay of NAMPT; settings: without substrates; 6.8 nM NAMPT, 200 nM probe, 3 hours equilibration
Experimental: Determination of the utility of compounds having Formula (I) as binders to and inhibitors of NAMPT was performed using Time-Resolved Fluorescence Resonance Energy Transfer (TR-FRET) binding assays.
Time-Resolved Fluorescence Resonance Energy Transfer (TR-FRET) Binding Assay of NAMPT
Test compounds were serially diluted (typically 11 half log dilutions) in neat DMSO to 50× final concentrations prior to dilution with assay buffer (50 mM HEPES (NaOH), pH 7.5, 100 mM NaCl, 10 mM MgCl2, 1 mM DTT, 1% Glycerol) to 3× and 6% DMSO. Six μL were transferred to 384-well low-volume plates (Owens Corning #3673). To this, […] of a 1.5× solution containing enzyme, probe and antibody were added. Final concentrations in the 18 μL, reactions were 1× assay buffer, 2% DMSO, 6.8 nM NAMPT (human, recombinant, C-terminally His-tagged), 200 nM probe (a potent nicotinamide-competitive inhibitor conjugated to Oregon Green 488) and 1 nM Tb-anti-His antibody (Invitrogen # PV5895). Reactions were equilibrated at room temperature for 3 hours prior to reading on an Envision multi-label plate reader (Perkin Elmer; Ex=337 nm, Em=520 and 495 nm). Time-resolved FRET ratios (Em520/Em495) were normalized to controls, plotted as a function of compound concentration and fit with the four-parameter logistic equation to determine IC50s.

Chain of NAMPT (human, recombinant, C-terminally His-tagged) (P43490 whole entry): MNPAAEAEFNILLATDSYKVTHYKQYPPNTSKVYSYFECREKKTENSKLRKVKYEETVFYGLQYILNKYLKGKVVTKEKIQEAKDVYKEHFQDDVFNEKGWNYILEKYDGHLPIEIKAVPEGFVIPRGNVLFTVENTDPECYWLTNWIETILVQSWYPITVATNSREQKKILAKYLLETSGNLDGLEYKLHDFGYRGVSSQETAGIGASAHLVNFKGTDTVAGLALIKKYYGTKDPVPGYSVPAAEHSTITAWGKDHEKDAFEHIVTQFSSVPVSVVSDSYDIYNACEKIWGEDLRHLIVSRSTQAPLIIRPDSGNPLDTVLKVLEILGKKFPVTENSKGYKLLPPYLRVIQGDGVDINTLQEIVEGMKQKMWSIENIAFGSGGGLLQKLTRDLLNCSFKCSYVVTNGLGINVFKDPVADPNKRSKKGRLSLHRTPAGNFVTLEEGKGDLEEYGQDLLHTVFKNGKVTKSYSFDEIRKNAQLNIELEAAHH
Chain of NAMPT (P43490 whole entry): as above

| IC50 (PC3 cells) | IC50 (NAMPT) | IC50 [1] | SMILES |
| --- | --- | --- | --- |
| 331 nM | 0.457 nM | 197 nM | O=C(Nc1ccc(C(=O)NCCOc2ccccc2)cc1)Nc1ccc2nccn2c1 [Example 10, 4-[(imidazo[1,2-a]pyridin-6-ylcarbamoyl)amino]-N-(2-phenoxyethyl)benzamide] |
| 4530 nM | 0.271 nM | 7600 nM | O=C(Nc1ccc(C(=O)NCCN2CCCC2)cc1)Nc1ccc2nccn2c1 [Example 11, 4-[(imidazo[1,2-a]pyridin-6-ylcarbamoyl)amino]-N-[2-(pyrrolidin-1-yl)ethyl]benzamide] |
| 213 nM | 0.292 nM | 486 nM | CC(C)OCCNC(=O)c1ccc(NC(=O)Nc2ccc3nccn3c2)cc1 [Example 12, -[(imidazo[1,2-a]pyridin-6-ylcarbamoyl)amino]-N-[2-(propan-2-yloxy)ethyl]benzamide] |
| 1170 nM | 0.663 nM | 653 nM | CC(C)(O)CNC(=O)c1ccc(NC(=O)Nc2ccc3nccn3c2)cc1 [Example 13, N-(2-hydroxy-2-methylpropyl)-4-[(imidazo[1,2-a]pyridin-6-ylcarbamoyl)amino]benzamide] |
| 644 nM | 1.22 nM | 741 nM | COc1ccc(C(CO)NC(=O)c2ccc(NC(=O)Nc3ccc4nccn4c3)cc2)cc1 (stereo not drawn) [Example 14, N-[2-hydroxy-1-(4-methoxyphenyl)ethyl]-4-[(imidazo[1,2-a]pyridin-6-ylcarbamoyl)amino]benzamide] |
| 3970 nM | 0.841 nM | 1760 nM | O=C(Nc1ccc(C(=O)NCCN2CCCC2=O)cc1)Nc1ccc2nccn2c1 [Example 15, 4-[(imidazo[1,2-a]pyridin-6-ylcarbamoyl)amino]-N-[2-(2-oxopyrrolidin-1-yl)ethyl]benzamide] |
| 325 nM | 0.396 nM | 409 nM | O=C(Nc1ccc(C(=O)NCC2CCCO2)cc1)Nc1ccc2nccn2c1 (stereo not drawn) [Example 16] |
| 4960 nM | 0.401 nM | 2960 nM | CCCNC(=O)c1ccc(NC(=O)Nc2ccc3nccn3c2)cc1 [Example 17, 4-[(imidazo[1,2-a]pyridin-6-ylcarbamoyl)amino]-N-propylbenzamide] |
| 360 nM | 0.418 nM | 2730 nM | O=C(Nc1ccc(C(=O)NCCCN2CCOCC2)cc1)Nc1ccc2nccn2c1 [Example 18, 4-[(imidazo[1,2-a]pyridin-6-ylcarbamoyl)amino]-N-[3-(morpholin-4-yl)propyl]benzamide] |
| 6630 nM | 0.921 nM | 2680 nM | O=C(Nc1ccc(C(=O)Nc2ccccc2)cc1)Nc1ccc2nccn2c1 [Example 19, 4-[(imidazo[1,2-a]pyridin-6-ylcarbamoyl)amino]-N-phenylbenzamide] |
| 102 nM | 0.169 nM | 404 nM | CCC(C)CNC(=O)c1ccc(NC(=O)Nc2ccc3nccn3c2)cc1 (stereo not drawn) [Example 20, 4-[(imidazo[1,2-a]pyridin-6-ylcarbamoyl)amino]-N-(2-methylbutyl)benzamide] |
| 899 nM | 0.887 nM | 433 nM | O=C(Nc1ccc(C(=O)NCCCN2CCCC2=O)cc1)Nc1ccc2nccn2c1 [Example 21, 4-[(imidazo[1,2-a]pyridin-6-ylcarbamoyl)amino]-N-[3-(2-oxopyrrolidin-1-yl)propyl]benzamide] |
| 142 nM | 0.277 nM | 399 nM | O=C(Nc1ccc(C(=O)NCC2CCOCC2)cc1)Nc1ccc2nccn2c1 [Example 22] |
| 41.5 nM | 0.409 nM | 281 nM | O=C(Nc1ccc(C(=O)NCC2CCCCO2)cc1)Nc1ccc2nccn2c1 (stereo not drawn) [Example 23] |
| 691 nM | 0.363 nM | 167 nM | O=C(Nc1ccc(C(=O)NCC2CCS(=O)(=O)C2)cc1)Nc1ccc2nccn2c1 (stereo not drawn) [Example 24, N-[(1,1-dioxidotetrahydrothiophen-3-yl)methyl]-4-[(imidazo[1,2-a]pyridin-6-ylcarbamoyl)amino]benzamide] |
| 146 nM | 0.714 nM | 508 nM | CC(C)(C)OC(=O)N1CC=C(c2ccc(NC(=O)Nc3ccc4nccn4c3)cc2)CC1 [Example 25, tert-butyl 4-{4-[(imidazo[1,2-a]pyridin-6-ylcarbamoyl)amino]phenyl}-3,6-dihydropyridine-1(2H)-carboxylate] |
| 261 nM | 1.1 nM | 211 nM | O=C(CC1CCOC1)Nc1ccc(NC(=O)Nc2ccc3nccn3c2)cc1 (stereo not drawn) [Example 26, N-{4-[(imidazo[1,2-a]pyridin-6-ylcarbamoyl)amino]phenyl}-2-(tetrahydrofuran-3-yl)acetamide] |
| 7540 nM | 0.658 nM | 756 nM | CC(=O)Nc1ccc(NC(=O)Nc2ccc3nccn3c2)cc1 [Example 27] |
| 14.2 nM | 0.19 nM | 152 nM | O=C(Nc1ccc(C2=CCN(C(=O)CC3CCOC3)CC2)cc1)Nc1ccc2nccn2c1 (stereo not drawn) [Example 28, 1-imidazo[1,2-a]pyridin-6-yl-3-{4-[1-(tetrahydrofuran-3-ylacetyl)-1,2,3,6-tetrahydropyridin-4-yl]phenyl}urea] |
| 43.9 nM | 0.236 nM | 168 nM | CC(C)(O)C(=O)N1CC=C(c2ccc(NC(=O)Nc3ccc4nccn4c3)cc2)CC1 [Example 29, 1-{4-[1-(2-hydroxy-2-methylpropanoyl)-1,2,3,6-tetrahydropyridin-4-yl]phenyl}-3-imidazo[1,2-a]pyridin-6-ylurea] |
| 38.4 nM | 0.785 nM | 1180 nM | O=C(Nc1ccc(C2=CCN(C(=O)CN3CCOCC3)CC2)cc1)Nc1ccc2nccn2c1 [Example 30, 1-imidazo[1,2-a]pyridin-6-yl-3-{4-[1-(morpholin-4-ylacetyl)-1,2,3,6-tetrahydropyridin-4-yl]phenyl}urea] |
| 107 nM | 0.311 nM | 739 nM | CCOCC(=O)N1CC=C(c2ccc(NC(=O)Nc3ccc4nccn4c3)cc2)CC1 [Example 31, 1-{4-[1-(ethoxyacetyl)-1,2,3,6-tetrahydropyridin-4-yl]phenyl}-3-imidazo[1,2-a]pyridin-6-ylurea] |
| 284 nM | 0.169 nM | 906 nM | COCCOCC(=O)N1CC=C(c2ccc(NC(=O)Nc3ccc4nccn4c3)cc2)CC1 [Example 32, 1-imidazo[1,2-a]pyridin-6-yl-3-(4-{1-[(2-methoxyethoxy)acetyl]-1,2,3,6-tetrahydropyridin-4-yl}phenyl)urea] |
| 67.3 nM | 0.553 nM | 369 nM | O=C(Nc1ccc(C2=CCN(C(=O)C3CCCO3)CC2)cc1)Nc1ccc2nccn2c1 (stereo not drawn) [Example 33, 1-imidazo[1,2-a]pyridin-6-yl-3-{4-[1-(tetrahydrofuran-2-ylcarbonyl)-1,2,3,6-tetrahydropyridin-4-yl]phenyl}urea] |
| 38.3 nM | 0.377 nM | 208 nM | O=C(Nc1ccc(C2=CCN(C(=O)C3CCOCC3)CC2)cc1)Nc1ccc2nccn2c1 [Example 34, 1-imidazo[1,2-a]pyridin-6-yl-3-{4-[1-(tetrahydro-2H-pyran-4-ylcarbonyl)-1,2,3,6-tetrahydropyridin-4-yl]phenyl}urea] |
| 58.6 nM | 0.801 nM | 387 nM | O=C(Nc1ccc(C2=CCN(C(=O)C3COCCO3)CC2)cc1)Nc1ccc2nccn2c1 (stereo not drawn) [Example 35, 1-{4-[1-(1,4-dioxan-2-ylcarbonyl)-1,2,3,6-tetrahydropyridin-4-yl]phenyl}-3-imidazo[1,2-a]pyridin-6-ylurea] |
| 51.4 nM | 0.444 nM | 356 nM | CN1CCC(C(=O)N2CC=C(c3ccc(NC(=O)Nc4ccc5nccn5c4)cc3)CC2)CC1 [Example 36, 1-imidazo[1,2-a]pyridin-6-yl-3-(4-{1-[(1-methylpiperidin-4-yl)carbonyl]-1,2,3,6-tetrahydropyridin-4-yl}phenyl)urea] |
| 34.7 nM | 0.309 nM | 129 nM | O=C(Nc1ccc(C2=CCN(C(=O)C3CCS(=O)(=O)CC3)CC2)cc1)Nc1ccc2nccn2c1 [Example 37, 1-(4-{1-[(1,1-dioxidotetrahydro-2H-thiopyran-4-yl)carbonyl]-1,2,3,6-tetrahydropyridin-4-yl}phenyl)-3-imidazo[1,2-a]pyridin-6-ylurea] |
